# Laboratory results published in patent US8222260B2, “Substituted 6-anilinopurine derivatives as inhibitors of cytokinin oxidase/dehydrogenase and preparations containing these derivatives” (Univerzita Palackego V Olomouci, priority 2007, dated 2012).
# Values joined by “and” are separate entries in the source; they are usually repeats but may differ in a detail not shown here. Identical values can stand only once.
# Assays:
# AHK3 = target: T1, AHK3 (Arabidopsis thaliana, UniProt Q9C5U1); test: Activation of cytokinin receptors (E. coli KMI001 beta-galactosidase reporter); type: cell-based; settings: 28 h incubation; n.a. means no activation
# T1 sequence (Q9C5U1 1-1036): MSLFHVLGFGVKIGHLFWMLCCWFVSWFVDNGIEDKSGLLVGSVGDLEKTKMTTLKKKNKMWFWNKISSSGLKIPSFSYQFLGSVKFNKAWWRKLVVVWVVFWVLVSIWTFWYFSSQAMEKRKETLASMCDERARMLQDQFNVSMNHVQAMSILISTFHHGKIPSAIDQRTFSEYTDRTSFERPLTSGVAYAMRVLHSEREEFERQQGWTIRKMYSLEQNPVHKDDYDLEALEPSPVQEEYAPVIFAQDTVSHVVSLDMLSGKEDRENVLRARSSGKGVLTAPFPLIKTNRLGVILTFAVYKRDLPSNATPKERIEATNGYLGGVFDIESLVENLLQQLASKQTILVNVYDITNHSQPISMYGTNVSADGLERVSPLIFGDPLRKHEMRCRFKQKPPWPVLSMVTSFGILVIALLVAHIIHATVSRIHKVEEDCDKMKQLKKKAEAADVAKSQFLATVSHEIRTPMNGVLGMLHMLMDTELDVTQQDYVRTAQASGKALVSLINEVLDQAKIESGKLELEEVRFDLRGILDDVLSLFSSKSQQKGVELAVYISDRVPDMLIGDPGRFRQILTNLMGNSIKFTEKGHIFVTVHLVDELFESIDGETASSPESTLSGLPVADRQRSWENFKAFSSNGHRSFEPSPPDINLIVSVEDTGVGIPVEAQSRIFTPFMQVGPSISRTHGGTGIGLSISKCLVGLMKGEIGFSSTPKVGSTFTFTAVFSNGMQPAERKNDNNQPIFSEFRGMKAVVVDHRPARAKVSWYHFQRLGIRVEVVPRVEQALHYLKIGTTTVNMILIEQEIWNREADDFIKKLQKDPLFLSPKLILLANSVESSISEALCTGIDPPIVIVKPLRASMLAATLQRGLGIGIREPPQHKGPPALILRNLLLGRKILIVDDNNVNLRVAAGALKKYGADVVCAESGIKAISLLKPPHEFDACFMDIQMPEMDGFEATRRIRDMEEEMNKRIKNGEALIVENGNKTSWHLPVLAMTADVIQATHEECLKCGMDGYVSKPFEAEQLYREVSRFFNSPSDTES
# Description: Escherichia coli strains KMI001 harbouring the plasmid […]4 or […]3 were grown overnight at 25° C. in M9 media enriched with 0.1% casamino acids to OD600 1. The preculture was diluted 1:600 in 1 ml M9 medium containing 0.1% casamino acids and 1 μl stock solution of either the tested compound (10^-7 M-5×10^-5 M) or solvent control (DMSO, ethanol, methanol) were added. The cultures were further grown at 25° C. in microtiter plate, 200 μl per well. […] The cultures were centrifuged and 50 μl aliquots of the supernatant were transferred to microtiter plate containing 2 μl 150 mM 4-methyl umbelliferyl galactoside which was subsequently incubated for 1 h at 37° C. The reaction was stopped by adding 100 μl 0.2 M Na2CO3. […] The EC50 value, the compound concentration activating the receptor to 50%, was calculated from the obtained dose response curves. The values shown in Table 10 are means of three replicates and the entire test was repeated at least twice.
# [1] = tested on: Human diploid fibroblasts HCA; test: Anti-aging activity: senescence-associated beta-galactosidase in human fibroblasts; type: cell-based; settings: for Senescent Cells (%) HCA passage 25: passage 25, cells expressing senescence-associated beta-galactosidase; for Senescent Cells (%) HCA passage 50: passage 50, cells expressing senescence-associated beta-galactosidase; for Senescent Cells (%) HCA passage 80: passage 80, cells expressing senescence-associated beta-galactosidase
# Description: In this example, effects of the compounds of this invention on the activity of a senescence biomarker senescence-associated β-galactosidase was studied. Human diploid fibroblasts HCA of various passage levels were used for this purpose. The tested compounds were added to the medium at each passage. After the incubation period, cells were washed with PBS and fixed with 2% formaldehyde and 0.2% glutaraldehyde in PBS. After another wash with PBS, they were incubated with the staining solution comprising potassium ferricyanide (5 mM), potassium ferrocyanide (5 mM), MgCl2 (2 mM), X-gal (5-bromo-4-chloro-3-indolyl-β-D-galactopyranoside) (1 mg/ml), in citric/phosphate buffer (pH 6.0) at 37° C. (without CO2) for at least 1 hour. Following the incubation period, the numbers of cells expressing senescence-associated β-galactosidase (blue cells) were counted using light microscope.
# [2] = tested on: Amaranthus caudatus cotyledon/hypocotyl explants; test: Amaranthus bioassay (betacyanin content); type: cell-based, Amaranthus caudatus var. atropurpurea; settings: for Activity (%) [10^−5 mol · l^−1 K = 100%]: at the concentration with highest activity, relative to 10^−5 M kinetin
# Description: The standard Amaranthus bioassay was performed with the following modifications. The seeds of Amaranthus caudatus var. atropurpurea were surface-sterilised in 10% (w/v) N-chlorobenzenesulfonamide for 10 min and washed 5 times with deionized water. They were placed in 15 cm Petri dishes containing paper tissues saturated with deionized water. After 72 h of cultivation at 25° C. in darkness, the roots of the seedlings were cut off. The explants, consisting of two cotyledons and hypocotyls, were placed in 5 cm Petri dishes onto two layers of filtration paper soaked with 1 ml of the incubation medium containing 10 μmol of Na2HPO4—KH2PO4, pH 6.8, 5 μmol of tyrosine and the compound to be tested. There were 20 explants per dish. The procedure was carried out under green safe light in a darkroom. After 48 h of incubation at 25° C. in darkness, betacyanin was extracted by freezing the explants in 4 ml 3.33 μM acetic acid. The concentration of betacyanin was determined from the absorbances at 537 nm and 620 nm as follows: ΔA=A537nm−A620nm. The values ΔA were plotted against the concentration tested, are means of five replicates and the entire test was repeated at least twice. […] The compounds to be tested were dissolved in dimethylsulfoxide (DMSO) and the solution brought up to 10^−3M with distilled water.
# From the obtained data, the concentration with the highest activity was selected for each compound tested. Relative activity of the compound at this concentration was calculated (Tab. 12). The activity obtained for 10^−5 M kinetin (K) was postulated as 100%.
# [3] = tested on: cytokinin-dependent tobacco callus Nicotiana tabacum L. cv. Wisconsin 38; test: Tobacco callus biotest (plant cell division); type: cell-based; settings: for Activity (%) [10^−5 mol · l^−1 K = 100%]: at the concentration with highest activity, relative to 10^−5 M kinetin
# Description: The stimulatory effect of the newly prepared derivatives was tested in the calus biotest using cytokinin-dependent tobacco callus. Cytokinin-dependent tobacco callus Nicotiana tabacum L. cv. Wisconsin 38 was maintained at 25° C. in darkness on modified Murashige-Skoog medium, containing per 1 liter: 4 μmol of nicotinic acid, 2.4 μmol of pyridoxine hydrochloride, 1.2 μmol of thiamine, 26.6 μmol of glycine, 1.37 μmol of glutamine, 1.8 μmol of myo-inositol, 30 g of sucrose, 8 g of agar, 5.37 μmol of NAA and 0.5 μmol of 6-benzylaminopurine. Subcultivation was carried out every three weeks. Fourteen days before the bioassay, the callus tissue was transferred to the media without 6-benzylaminopurine. The biological activity was determined from the increase of the fresh callus weight after four weeks of cultivation. Five replicates were prepared for each concentration of the compound tested and the entire test was repeated twice. […] The compounds to be tested were dissolved in dimethylsulfoxide (DMSO) and the solution brought up to 10^−3 M with distilled water.
# From the obtained data, the concentration with the highest activity was selected for each compound tested. Relative activity of the compound at this concentration was calculated (Table 11). The activity obtained for 10^−5 M of the control substance kinetin (K) was postulated as 100%.
Compound,EC50 (AHK3) [µM],Senescent Cells (%) HCA passage 25 [1] [%],Senescent Cells (%) HCA passage 50 [1] [%],Senescent Cells (%) HCA passage 80 [1] [%],Activity (%) [10^−5 mol · l^−1 K = 100%] [2],further results
COc1ccc(Nc2nc(Cl)nc3[nH]cnc23)cc1 [Compound 13],33.1,,,,,
Nc1nc(Nc2ccc(O)cc2)c2nc[nH]c2n1 [2-amino-(4-hydroanilino)purine],,3,4,21,,
CSc1nc(Nc2ccc(O)cc2)c2[nH]cnc2n1 [2-methylthio-6-(4-hydroxyanilino)purine],,4,6,34,,
COc1cccc(Nc2nc(Cl)nc3nc[nH]c23)c1 [2-chloro-6-(3-methoxyanilino)purine],,5,5,24,,
Nc1nc(Nc2ccc(F)cc2)c2nc[nH]c2n1 [Compound 70],19.5,,,,136%,
COc1ccc(Nc2nc(F)nc3[nH]cnc23)cc1 [Compound 52],18.9,,,,,Activity (%) [10^−5 mol · l^−1 K = 100%] [3]: 105%
COc1ccc(Nc2nc(Cl)nc3nc[nH]c23)cc1 [2-chloro-6-(4-methoxyanilino)purine],,4,3,26,,
COc1cccc(Nc2nc(N)nc3nc[nH]c23)c1 [2-amino-6-(3-methoxyanilino)purine],,4,4,22,,
Nc1nc(Nc2ccc(O)cc2)c2[nH]cnc2n1 [2-amino-(4-hydroxyanilino)purine],,4,4,18,,
COc1ccc(Nc2nc(N)nc3[nH]cnc23)cc1 [Compound 76],26.3,,,,,
COc1cc(Nc2nc(Cl)nc3nc[nH]c23)ccc1O,,4,6,,,
Nc1nc(Nc2ccc(Cl)cc2)c2nc[nH]c2n1 [Compound 67],8.1,,,,141.7%,
COc1ccccc1Nc1nc(Cl)nc2nc[nH]c12 [Compound 11],,,,,110.3% and 121.7%,Activity (%) [10^−5 mol · l^−1 K = 100%] [3]: 109%; concentration with highest activity ([3]; fresh weight after four weeks): 10^−5 mol · l^−1; concentration with highest activity ([2]; 48 h): 10^−5 mol · l^−1
COc1ccccc1Nc1nc(N)nc2[nH]cnc12 [Compound 74],29,,,,108%,
COc1cccc(Nc2nc(F)nc3nc[nH]c23)c1 [2-fluoro-6-(3-methoxyanilino)purine],,3,5,29,,
Fc1ccc(Nc2nc(Cl)nc3[nH]cnc23)cc1 [Compound 7],,,,,104%,Activity (%) [10^−5 mol · l^−1 K = 100%] [3]: 112%
Fc1ccc(Nc2nc(F)nc3[nH]cnc23)cc1 [Compound 46],22.5,,,,109%,Activity (%) [10^−5 mol · l^−1 K = 100%] [3]: 110.7%
Sc1nc(Nc2ccc(Cl)cc2)c2nc[nH]c2n1 [Compound 81],10.2,,,,122.9%,Activity (%) [10^−5 mol · l^−1 K = 100%] [3]: 115.7%
Oc1ccc(Nc2nc(F)nc3nc[nH]c23)cc1 [2-fluoro-6-(4-hydroxyanilino)purine],,3,4,18,,
